The values below come from patent US9403801B2 (Calitor Sciences, LLC, priority 2014, dated 2016).

The nature of data set [1]: Compound stability in human liver microsomes. To be noted: for half-life at 5 μM: compound 5 μM, NADPH 1.0 mM, 37° C.; for CLint scaled at 5 μM: in vivo CLint extrapolated. The format is in vitro ADME. The protocol: (§1) Human or rat liver microsomes incubations were conducted in duplicate in polypropylene tubes. The typical incubation mixtures consisted of human or rat liver microsomes (0.5 mg protein/mL), compounds of interest (5 μM) and NADPH (1.0 mM) in a total volume of 200 μL potassium phosphate buffer (PBS, 100 mM, pH 7.4). Compounds were dissolved in DMSO and diluted with PBS such that the final concentration of DMSO was 0.05%. The enzymatic reactions were commenced with the addition of protein after a 3-min preincubation and incubated in a water bath open to the air at 37° C. Reactions were terminated at various time points (0, 5, 10, 15, 30, 60 min) by adding equal volume of ice-cold acetonitrile. The samples were stored at −80° C. until LC/MS/MS assays.
(§2) The concentrations of compounds in the incubation mixtures of human or rat liver microsomes were determined by a LC/MS/MS method. The ranges of the linearity in the concentration range were determined for each tested compounds.
(§3) A parallel incubation was performed using denatured microsomes as the negative control, and reactions were terminated at various time points (0, 15, 60 min) after incubation at 37° C.
(§4) Dextromethorphan (70 μM) was selected as the positive control, and reactions were terminated at various time points (0, 5, 10, 15, 30, 60 min) after incubation at 37° C. Both positive and negative control samples were included in each assay to ensure the integrity of the microsomal incubation system.
(§5) The concentrations of compounds in human or rat liver microsome incubations were plotted as a percentage of the relevant zero time point control for each reaction. The in vivo CLint were extrapolated (ref.: Naritomi, Y.; Terashita, S.; Kimura, S.; Suzuki, A.; Kagayama, A.; and Sugiyama, Y.; Prediction of human hepatic clearance from in vivo animal experiments and in vitro metabolic studies with liver microsomes from animals and humans. Drug Metab. Dispos., 2001, 29: 1316-1324).

A short description of data set [2]: Compound stability in rat liver microsomes. To be noted: for half-life at 5 μM: compound 5 μM, NADPH 1.0 mM, 37° C.; for CLint scaled at 5 μM: in vivo CLint extrapolated. The format is in vitro ADME. The protocol: as §1, §2, §3, §4, §5
A short description of data set [3]: Pharmacokinetics after intravenous and oral administration in rats. Format: in vivo. To be noted: for Clearance (CL) after iv dosing / AUC(0-t) / half-life / Vd: dose 1 mg/kg (Ex. 27: 0.72 mg/kg), iv dosing; for F: oral bioavailability; for AUC(0-t) / half-life / Vd: rat, plasma; for Vd: read-out: Vss. The protocol:
The LC/MS/MS system used in the analysis consists of an Agilent 1200 Series vacuum degasser, binary pump, well-plate autosampler, thermostatted column compartment, the Agilent G6430 Triple Quadrupole Mass Spectrometer with an electrosprayionization (ESI) source. Quantitative analysis was carried out using MRM mode. The parameters for MRM transitions are in the Table A.
An Agilent XDB-C18, 2.1×30 mm, 3.5 μM column was used for the analysis. 5 μL of the samples were injected. Analysis condition: The mobile phase was 0.1% formic acid in water (A) and 0.1% formic acid in methanol (B). The flow rate was 0.4 mL/min. And the gradient of Mobile phase was in the Table B.
Alternatively, an Agilent 6330 series LC/MS/MS spectrometer equipped with G1312A binary pumps, a G1367A autosampler and a G1314C UV detector were used in the analysis. An ESI source was used on the LC/MS/MS spectrometer. The analysis was done in positive ion mode as appropriate and the MRM transition for each analyte was optimized using standard solution. A Capcell MP-C18 100×4.6 mm I.D., […] column (Phenomenex, Torrance, Calif., USA) was used during the analysis. The mobile phase was 5 mM ammonia acetate, 0.1% MeOH in water (A): 5 mM ammonia acetate, 0.1% MeOH in acetonitrile (B) (70:30, v/v). The flow rate was 0.6 mL/min. Column was maintained at ambient temperature. 20 μL of the samples were injected.
The compounds disclosed herein are assessed in pharmacokinetic studies in mice, rats, dogs or monkeys. The compounds are administered as a water solution, 2% HPMC+1% TWEEN®80 in water solution, 5% DMSO+5% solution in saline, 4% MC suspension or capsule. For the intravenous administration, the animals are generally given at 1 or 2 mg/kg dose. For the oral (p.o.) dosing, mice and rats are generally given 5 or 10 mg/kg dose, and dogs and monkeys are generally given 10 mg/kg dose. The blood samples (0.3 mL) are drawn at 0.25, 0.5, 1.0, 2.0, 3.0, 4.0, 6.0, 8.0, 12 and 24 h time points or 0.083, 0.25, 0.5, 1.0, 2.0, 4.0, 6.0, 8.0 and 24 h time points and centrifuged at 3,000 or 4000 rpm for 2 to 10 min. The plasma solutions are collected, and stored at −20° C. or −70° C. until analyzed by LC/MS/MS as described above.

Data set [4] concerns the target JAK1 (h) (Homo sapiens (Human), UniProt P23458). The data set can be described thus: JAK1 kinase assay (33P-ATP filter binding, Millipore). Format: biochemical. The protocol: Kinase assays can be performed by measurement of incorporation of γ-^33P ATP into immobilized myelin basic protein (MBP). High binding white 384 well plates (Greiner) are coated with MBP (Sigma #M−1891) by incubation of 60 μL/well of 20 μg/mL MBP in Tris-buffered saline (TBS; 50 mM Tris pH 8.0, 138 mM NaCl, 2.7 mM KCl) for 24 h at 4° C. Plates are washed 3× with 100 μL TBS. Kinase reactions are carried out in a total volume of 34 μL in kinase buffer (5 mM Hepes pH 7.6, 15 mM NaCl, 0.01% bovine gamma globulin (Sigma #I-5506), 10 mM MgCl2, 1 mM DTT, 0.02% TritonX-100). Compound dilutions are performed in DMSO and added to assay wells to a final DMSO concentration of 1%. Each data point is measured in duplicate, and at least two duplicate assays are performed for each individual compound determination. Enzyme is added to final concentrations of 10 nM or 20 nM, for example. A mixture of unlabeled ATP and γ-^33P ATP is added to start the reaction (2×10^6 cpm of γ-^33P ATP per well (3000 Ci/mmole) and 10 μM unlabeled ATP, typically. The reactions are carried out for 1 h at room temperature with shaking. Plates are washed 7× with TBS, followed by the addition of 50 μL/well scintillation fluid (Wallac). Plates are read using a Wallac Trilux counter. This is only one format of such assays; various other formats are possible, as known to one skilled in the art.
The above assay procedure can be used to determine the IC50 for inhibition and/or the inhibition constant, Ki. The IC50 is defined as the concentration of compound required to reduce the enzyme activity by 50% under the condition of the assay. The IC50 value is estimated by preparing a 10 point curve using a 1/2 log dilution series (for example, a typical curve may be prepared using the following compound concentrations: 3 μM, 1 μM, 0.3 μM, 0.1 μM, 0.03 μM, 0.01 μM, 0.003 μM, 0.001 μM, 0.0003 μM and 0 μM).
The kinase assays described herein were performed at Millipore UK Ltd, Dundee Technology Park, Dundee DD2 1SW, UK.

The mark [5] stands for this setting: pH 7.4, Human liver microsomes 0.5 mg protein/mL.
Where [6] appears, read: pH 7.4, Rat liver microsomes 0.5 mg protein/mL.

Chain of JAK1 (h) (P23458 whole entry): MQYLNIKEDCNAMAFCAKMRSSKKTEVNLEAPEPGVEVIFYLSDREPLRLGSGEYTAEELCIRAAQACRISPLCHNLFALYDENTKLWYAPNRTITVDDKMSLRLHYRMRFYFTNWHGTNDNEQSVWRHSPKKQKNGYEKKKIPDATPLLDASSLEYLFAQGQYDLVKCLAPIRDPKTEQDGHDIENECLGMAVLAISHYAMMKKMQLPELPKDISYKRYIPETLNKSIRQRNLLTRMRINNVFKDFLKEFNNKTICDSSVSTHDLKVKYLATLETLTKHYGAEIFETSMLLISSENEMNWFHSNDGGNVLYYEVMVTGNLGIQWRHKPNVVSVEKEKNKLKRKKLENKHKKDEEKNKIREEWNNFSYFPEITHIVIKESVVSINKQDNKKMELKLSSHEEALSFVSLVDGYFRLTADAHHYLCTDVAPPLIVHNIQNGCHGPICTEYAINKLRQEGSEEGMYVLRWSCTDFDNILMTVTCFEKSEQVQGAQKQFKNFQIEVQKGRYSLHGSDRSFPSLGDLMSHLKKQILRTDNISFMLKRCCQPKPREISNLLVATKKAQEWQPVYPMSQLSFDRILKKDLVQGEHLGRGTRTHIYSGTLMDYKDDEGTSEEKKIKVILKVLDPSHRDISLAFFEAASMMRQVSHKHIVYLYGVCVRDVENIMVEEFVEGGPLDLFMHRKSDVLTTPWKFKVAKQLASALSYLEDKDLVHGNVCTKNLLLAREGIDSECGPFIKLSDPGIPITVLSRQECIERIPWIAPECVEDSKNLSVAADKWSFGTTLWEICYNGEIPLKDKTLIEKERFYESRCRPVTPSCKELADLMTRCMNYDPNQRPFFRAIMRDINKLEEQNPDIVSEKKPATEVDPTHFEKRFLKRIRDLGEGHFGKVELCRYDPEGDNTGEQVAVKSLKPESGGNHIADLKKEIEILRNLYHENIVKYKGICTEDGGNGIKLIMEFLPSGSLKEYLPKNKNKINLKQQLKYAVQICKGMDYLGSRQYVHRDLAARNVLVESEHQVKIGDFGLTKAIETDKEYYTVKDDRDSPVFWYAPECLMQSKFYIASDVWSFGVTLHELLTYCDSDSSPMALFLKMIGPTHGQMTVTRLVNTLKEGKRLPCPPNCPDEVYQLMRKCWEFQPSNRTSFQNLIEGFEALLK

For `N#CCC(=O)N1CCC2(CCC(Nc3nc(Nc4cnn(CCO)c4)ncc3Cl)CC2)CC1` [Ex. 50, 3-(9-((5-chloro-2-((1-(2-hydroxyethyl)-1H-pyrazol-4-yl)amino)pyrimidin-4-yl)amino)-3-azaspiro[5.5]undecan-3-yl)-3-oxopropanenitrile], the half-life at 5 μM in data set [1] (human, liver microsomes, pH 7.4, Human liver microsomes 0.5 mg protein/mL) came to 537 min. The CLint scaled at 5 μM in data set [1] (human, liver microsomes, pH 7.4, Human liver microsomes) is 3.24 mL/min/kg. Also, the half-life at 5 μM in data set [2] (rat, liver microsomes, pH 7.4, Rat liver microsomes 0.5 mg protein/mL) was 308 min. The CLint scaled at 5 μM in data set [2] (rat, liver microsomes, pH 7.4, Rat liver microsomes) is 8.07 mL/min/kg. Further, in data set [3], the “Clearance (CL) after iv dosing” value was 43.2 mL/min/kg, the F is on record as 17.3%, the AUC(0-t) is 384 ng·h/mL and the half-life was 59.4 min. Also, in data set [3], the Vd came out at 1.93 L/kg. In data set [4], this compound gave an IC50 of 14 nM.

For the compound `Cc1cnc(Nc2cnn(C)c2)nc1NC1CN(C(=O)CC#N)CC12CCCC2` (stereo not drawn) [Ex. 8, 3-(4-((5-methyl-2-((1-methyl-1H-pyrazol-4-yl)amino)pyrimidin-4-yl)amino)-2-azaspiro[4.4]nonan-2-yl)-3-oxopropanenitrile], in data set [3], the “Clearance (CL) after iv dosing” value came out at 61.7 mL/min/kg, the F came to 17.5%, the AUC(0-t) turned out to be 272 ng·h/mL and the half-life is 52.8 min. In addition, the Vd in data set [3] came out at 2.85 L/kg. Also, the IC50 in data set [4] came to 11 nM.

Turning to `Cc1nn(C)cc1Nc1ncc(Cl)c(NC2CC3CN(C(=O)CC#N)CC3C2)n1` (stereo not drawn) [Ex. 64, 3-(5-((5-chloro-2-((1,3-dimethyl-1H-pyrazol-4-yl)amino)pyrimidin-4-yl)amino)hexahydrocyclopenta[c]pyrrol-2(1H)-yl)-3-oxopropanenitrile], the half-life at 5 μM in data set [1] (setting [5]) was determined as 62.8 min. Besides, in data set [1] (pH 7.4, Human liver microsomes), the CLint scaled at 5 μM was 27.7 mL/min/kg. In data set [2] (setting [6]), the half-life at 5 μM was found to be 33.6 min. Also, in data set [2] (pH 7.4, Rat liver microsomes), the CLint scaled at 5 μM is 74 mL/min/kg. Also, in data set [3], the “Clearance (CL) after iv dosing” value was 53.2 mL/min/kg, the F turned out to be 48.1%, the AUC(0-t) was 315 ng·h/mL and the half-life is 24.6 min. The Vd in data set [3] was 1.31 L/kg. In data set [4], this compound gave an IC50 of 2 nM.

As for `Cn1cc(Nc2ncc(Cl)c(NC3CN(C(=O)CC#N)CC34CCCC4)n2)cn1` (stereo not drawn) [Ex. 18, 3-(4-((5-chloro-2-((1-methyl-1H-pyrazol-4-yl)amino)pyrimidin-4-yl)amino)-2-azaspiro[4.4]nonan-2-yl)-3-oxopropanenitrile], in data set [3], the “Clearance (CL) after iv dosing” value was determined as 45.8 mL/min/kg, the F was 55.9%, the AUC(0-t) was 731 ng·h/mL and the half-life was 136 min. The Vd in data set [3] stood at 4.32 L/kg. In data set [4], the IC50 worked out at 7 nM.

`Cc1cnc(Nc2cnn(C)c2)nc1NC1CC2CN(c3ccc(C#N)cn3)CC2C1` (stereo not drawn) [Ex. 59, 6-(5-((5-methyl-2-((1-methyl-1H-pyrazol-4-yl)amino)pyrimidin-4-yl)amino)hexahydrocyclopenta[c]pyrrol-2(1H)-yl)nicotinonitrile]: in data set [3], the “Clearance (CL) after iv dosing” value came out at 26.8 mL/min/kg, the F stood at 36.9%, the AUC(0-t) is 648 ng·h/mL and the half-life is 58.2 min. For the same compound, the Vd in data set [3] is 1.76 L/kg. This compound also returned an IC50 in data set [4] of 1 nM.

`CN(c1nc(Nc2cnn(C)c2)ncc1Cl)C1CC2CN(C(=O)CC#N)CC2C1` (stereo not drawn) [Ex. 69, 3-(5-((5-chloro-2-((1-methyl-1H-pyrazol-4-yl)amino)pyrimidin-4-yl)(methyl)amino)hexahydrocyclopenta[c]pyrrol-2(1H)-yl)-3-oxopropanenitrile] registered a half-life at 5 μM in data set [1] (setting [5]) of 95.6 min. The CLint scaled at 5 μM in data set [1] (pH 7.4, Human liver microsomes) is 18.2 mL/min/kg. For the same compound, the half-life at 5 μM in data set [2] (setting [6]) stood at 12.2 min. For the same compound, in data set [2] (pH 7.4, Rat liver microsomes), the CLint scaled at 5 μM was 204 mL/min/kg. In addition, in data set [3], the “Clearance (CL) after iv dosing” value was 65.2 mL/min/kg, the F turned out to be 56.2%, the AUC(0-t) was found to be 281 ng·h/mL and the half-life is 28.2 min. Besides, the Vd in data set [3] amounted to 1.19 L/kg. The compound also displayed an IC50 in data set [4] of 15 nM.

Turning to `N#CCC(=O)N1CC2CC(Nc3nc(Nc4cnn(CC5CC5)c4)ncc3Cl)CC2C1` (stereo not drawn) [Ex. 46, 3-(5-((5-chloro-2-((1-(cyclopropylmethyl)-1H-pyrazol-4-yl)amino)pyrimidin-4-yl)amino)hexahydrocyclopenta[c]pyrrol-2(1H)-yl)-3-oxopropanenitrile], in data set [1] (setting [5]), the half-life at 5 μM was found to be 39.3 min. In addition, in data set [1] (pH 7.4, Human liver microsomes), the CLint scaled at 5 μM is 44.2 mL/min/kg. Further, in data set [2] (setting [6]), the half-life at 5 μM turned out to be 20.6 min. For the same compound, in data set [2] (pH 7.4, Rat liver microsomes), the CLint scaled at 5 μM is 121 mL/min/kg. In data set [3], the “Clearance (CL) after iv dosing” value came out at 68.8 mL/min/kg, the F was determined as 26.0%, the AUC(0-t) was determined as 244 ng·h/mL and the half-life was 28.8 min. Moreover, the Vd in data set [3] was determined as 1.53 L/kg. In data set [4], this compound showed an IC50 of 0.5 nM.

For `Cc1cnc(Nc2cnn(C)c2)nc1NC1CC2CN(C(=O)CC#N)CC2C1` (stereo not drawn) [Ex. 60, 3-(5-((5-methyl-2-((1-methyl-1H-pyrazol-4-yl)amino)pyrimidin-4-yl)amino)hexahydrocyclopenta[c]pyrrol-2(1H)-yl)-3-oxopropanenitrile], the half-life at 5 μM worked out at 244 min in data set [1] (setting [5]) and 240 min in data set [2] (setting [6]). The CLint scaled at 5 μM in data set [1] (pH 7.4, Human liver microsomes) was 7.11 mL/min/kg; in data set [2] (pH 7.4, Rat liver microsomes), 10.3 mL/min/kg. Further, in data set [4], the IC50 turned out to be 5 nM.
